Assay results as given in patent publication US10792272B2, “Methods for treatment of Clostridium difficile infections” (priority 2016, dated 2020).
≈ marks a conversion by molar mass, not a printed value. Where two headings read alike, the source gives them in different places.

Columns and labels:
[1] = tested on: C. difficile 630 (CD630, ATCC BAA-1382); experiment: MIC by broth microdilution against C. difficile 630; type: cell-based, Clostridium difficile; conditions: 20-24 h, 37° C.; for MIC C. difficile 630: Table 1, strain 630
[2] = tested on: C. difficile 4118 (CD4118, ATCC BAA-1870, BI/NAP1/027); experiment: MIC by broth microdilution against C. difficile 4118; type: cell-based, Clostridium difficile; conditions: for MIC: Clostridioides difficile, ATCCBAA1870
[3] = tested on: C. difficile strains 630 (CD630) and 4118 (CD4118); experiment: MIC / growth inhibition against C. difficile, covering both strains; type: cell-based, Clostridium difficile
[4] = tested on: liver carcinoma HepG2; experiment: In vitro cytotoxicity MTS assay, HepG2; conditions: 0.125 μg/mL; 16 h
[5] = tested on: embryonic kidney HEK 293T/17; experiment: In vitro cytotoxicity MTS assay, HEK 293T/17; conditions: 0.125 μg/mL; 16 h
[6] = tested on: B. subtilis ATCC 6051; experiment: MIC against aerobic bacteria; type: cell-based, Bacillus subtilis
[7] = tested on: S. aureus RN4220; experiment: MIC against aerobic bacteria; type: cell-based
[8] = tested on: S. epidermidis 1457; experiment: MIC against aerobic bacteria; type: cell-based
[9] = tested on: A. baumannii M2; experiment: MIC against aerobic bacteria; type: cell-based
[10] = tested on: P. aeruginosa PAO1; experiment: MIC against aerobic bacteria; type: cell-based, Pseudomonas aeruginosa
[11] = tested on: C. sporogenes ATCC 15579; experiment: microbe, parasite or virus in culture; type: cell-based, Clostridium sporogenes
[12] = tested on: C. clostridioforme ATCC 25537; experiment: MIC against anaerobic bacteria; type: cell-based, Clostridium clostridioforme
[13] = tested on: B. thetaiotaomicron ATCC 29148; experiment: microbe, parasite or virus in culture; type: cell-based
[14] = tested on: P. distasonis ATCC 8503; experiment: MIC against anaerobic bacteria; type: cell-based, Parabacteroides distasonis
[15] = tested on: P. nigrescens ATCC 33563; experiment: MIC against anaerobic bacteria; type: cell-based, Prevotella nigrescens
[16] = tested on: panel of aerobic and anaerobic organisms; type: cell-based
[17] = tested on: Clostridium difficile strain 4118; experiment: Minimum bactericidal concentration (MBC), logarithmic- and stationary-phase cells; type: cell-based; conditions: 3-log reduction of inoculum; for MBC: Clostridioides difficile
Protocol: The MBClog values of the protonophores were determined to be 0.25-2 μg/mL (˜4 to 8-fold greater than their respective MIC values).
Clostridium difficile strain 4118 was grown to OD600˜0.4-0.5 (logarithmic phase) or for 24 h (stationary phase), and thereafter added to two-fold serial dilutions of test compounds. Cultures were incubated for 20-24 h at 37° C., and then viable counts were enumerated on BHIS agar plates. […] MBC measurements were performed in duplicate.

[18] = Table 1, strain 4118, 20-24 h, 37° C.

Question: How did the “MIC C. difficile 630” value [1] turn out when `COc1c(I)cc(I)cc1C(=O)Nc1ccc2ccccc2c1` [Compound 6b] was run?
Answer: >32 µg/mL

Question: What about the “MIC C. difficile 4118” value [2, 18] of the same compound?
Answer: >32 µg/mL

Question: And the “growth inhibitory activity against CD630 and CD4118 (in words)” value (“growth inhibitory activity” below) [3]?
Answer: inactive

Question: Which results are given for `O=C(Nc1ccc([N+](=O)[O-])cc1Cl)c1cc(Cl)ccc1O` [Niclosamide, niclosamide]?
Answer: MIC ([2]; Table 1, strain 4118, 20-24 h, 37° C., read-out: MIC C. difficile 4118): 4 µg/mL (≈ 12.2 µM); cell viability HepG2 (MTS) [4]: significant decrease in viability; cell viability HEK 293T/17 (MTS) [5]: significant decrease in viability

Question: Which “MIC C. difficile 630” value [1] does the source give for `COc1c(I)cc(I)cc1C(=O)Nc1ccc(Oc2ccccc2)cc1` [Compound 5b] here?
Answer: >32 µg/mL

Question: What about the “MIC C. difficile 4118” value [2, 18] of the same compound?
Answer: >32 µg/mL

Question: What about the “growth inhibitory activity” value [3] of the same compound?
Answer: inactive

Question: For `O=C(Nc1ccc2ccccc2c1)c1cc(I)cc(I)c1` [Compound 6c], which “MIC C. difficile 630” value [1] is on record?
Answer: >32 µg/mL

Question: And the “MIC C. difficile 4118” value [2, 18]?
Answer: >32 µg/mL

Question: What about the “growth inhibitory activity” value [3] of the same compound?
Answer: inactive

Question: `Cc1ccc(Oc2ccc(NC(=O)c3cc(I)cc(I)c3O)cc2)cc1` [Compound 5f] was tested. Which “MIC C. difficile 630” value [1] did it give?
Answer: 0.13 µg/mL (≈ 0.228 µM)

Question: And the “MIC C. difficile 4118” value [2, 18]?
Answer: 0.25 µg/mL (≈ 0.438 µM)

Question: And the “growth inhibitory activity” value [3]?
Answer: high in vitro potency

Question: Which results are given for `O=C(Nc1ccc(Oc2ccccc2)cc1)c1cc(I)cc(I)c1O` [Compound 5a]?
Answer: MIC C. difficile 630 [1]: 0.5 µg/mL (≈ 0.897 µM); MIC C. difficile 4118 [2, 18]: 1 µg/mL (≈ 1.79 µM); growth inhibitory activity against CD630 and CD4118 (in words) [3]: high in vitro potency

Question: For `COc1c(I)cc(I)cc1C(=O)Nc1ccc(Oc2ccc(Cl)cc2)cc1` [Compound 5h], which “MIC C. difficile 630” value [1] is on record?
Answer: >32 µg/mL

Question: And the “MIC C. difficile 4118” value [2, 18]?
Answer: >32 µg/mL

Question: What about the “growth inhibitory activity” value [3] of the same compound?
Answer: inactive

Question: How did the “MIC C. difficile 630” value [1] turn out when `O=C(Nc1ccc(Oc2ccc(Cl)cc2)cc1)c1cc(I)cc(I)c1` [Compound 5i] was run?
Answer: >32 µg/mL

Question: What about the “MIC C. difficile 4118” value [2, 18] of the same compound?
Answer: >32 µg/mL

Question: What about the “MIC B. subtilis ATCC 6051” value ([6]; aerobic) of the same compound?
Answer: >32 µg/mL

Question: What about the “MIC S. aureus RN4220” value ([7]; aerobic) of the same compound?
Answer: >32 µg/mL

Question: What about the “MIC S. epidermidis 1457” value ([8]; aerobic) of the same compound?
Answer: >32 µg/mL

Question: What about the “MIC A. baumannii M2” value ([9]; aerobic) of the same compound?
Answer: >32 µg/mL

Question: And the “MIC P. aeruginosa PAO1” value ([10]; aerobic)?
Answer: >32 µg/mL

Question: What about the “MIC C. sporogenes ATCC 15579” value [11] of the same compound?
Answer: >32 µg/mL

Question: What about the “MIC C. clostridioforme ATCC 25537” value ([12]; anaerobic) of the same compound?
Answer: >32 µg/mL

Question: And the “MIC B. thetaiotaomicron ATCC 29148” value ([13]; anaerobic)?
Answer: >32 µg/mL

Question: What about the “MIC P. distasonis ATCC 8503” value ([14]; anaerobic) of the same compound?
Answer: >32 µg/mL

Question: What about the “MIC P. nigrescens ATCC 33563” value ([15]; anaerobic) of the same compound?
Answer: >32 µg/mL

Question: What about the “growth inhibitory activity” value [3] of the same compound?
Answer: inactive

Question: What about the “antibacterial spectrum (in words)” value [16] of the same compound?
Answer: lacked antibacterial activity

Question: `CN[C@H](CC(C)C)C(=O)N[C@H]1C(=O)N[C@@H](CC(N)=O)C(=O)N[C@H]2C(=O)N[C@H]3C(=O)N[C@H](C(=O)N[C@H](C(=O)O)c4cc(O)cc(O)c4-c4cc3ccc4O)[C@H](O)c3ccc(c(Cl)c3)Oc3cc2cc(c3O[C@@H]2O[C@H](CO)[C@@H](O)[C@H](O)[C@H]2O[C@H]2C[C@](C)(N)[C@H](O)[C@H](C)O2)Oc2ccc(cc2Cl)[C@H]1O` [Vancomycin, vancomycin, reference compound] was tested. Which MIC ([1]; Clostridioides difficile, ATCCBAA1382) did it give?
Answer: 1 µg/mL (≈ 0.69 µM)

Question: And the MIC [2]?
Answer: 2 µg/mL (≈ 1.38 µM)

Question: What about the MIC ([2]; 20-24 h, 37° C., read-out: MIC C. difficile 4118) of the same compound?
Answer: 2 µg/mL (≈ 1.38 µM)

Question: What about the MBC ([17]; logarithmic-phase cells of strain 4118, read-out: MBClog) of the same compound?
Answer: 8 µg/mL (≈ 5.52 µM)

Question: What about the MBC ([17]; stationary-phase cells of strain 4118, read-out: MBCstat) of the same compound?
Answer: > 32 µg/mL

Question: And the MBCstat ([17]; stationary-phase cells of strain 4118)?
Answer: >32 µg/mL

Question: What about the MIC ([6]; Bacillus subtilis, ATCC6051, read-out: MIC B. subtilis ATCC 6051) of the same compound?
Answer: 0.13 µg/mL (≈ 0.0897 µM)

Question: What about the MIC ([7]; Staphylococcus aureus, RN4220, read-out: MIC S. aureus RN4220) of the same compound?
Answer: 1 µg/mL (≈ 0.69 µM)

Question: And the MIC ([8]; Staphylococcus epidermidis, 1457, read-out: MIC S. epidermidis 1457)?
Answer: 2 µg/mL (≈ 1.38 µM)

Question: What about the MIC ([9]; Acinetobacter baumannii, M2, read-out: MIC A. baumannii M2) of the same compound?
Answer: > 32 µg/mL

Question: What about the MIC ([10]; Pseudomonas aeruginosa, PAO1, read-out: MIC P. aeruginosa PAO1) of the same compound?
Answer: > 32 µg/mL

Question: What about the MIC ([11]; Clostridium sporogenes, ATCC15579, read-out: MIC C. sporogenes ATCC 15579) of the same compound?
Answer: 2 µg/mL (≈ 1.38 µM)

Question: What about the MIC ([12]; Clostridium, ATCC25537, read-out: MIC C. clostridioforme ATCC 25537) of the same compound?
Answer: 0.5 µg/mL (≈ 0.345 µM)

Question: And the MIC ([13]; Bacteroides thetaiotaomicron, ATCC29148, read-out: MIC B. thetaiotaomicron ATCC 29148)?
Answer: > 32 µg/mL

Question: And the MIC ([14]; Parabacteroides distasonis, ATCC8503, read-out: MIC P. distasonis ATCC 8503)?
Answer: > 32 µg/mL

Question: And the MIC ([15]; Prevotella nigrescens, ATCC33563, read-out: MIC P. nigrescens ATCC 33563)?
Answer: > 32 µg/mL

Question: And the MIC ([3]; Clostridioides difficile, read-out: MIC against C. difficile)?
Answer: 1 to 2 µg/mL (≈ 0.69 to 1.38 µM)

Question: What about the “antibacterial spectrum (in words)” value [16] of the same compound?
Answer: Gram-positive organisms

Question: With `O=C(Nc1ccccc1Cl)c1cc(I)cc(I)c1O` [Compound 7c] as the compound, how does the “MIC C. difficile 630” value [1] read?
Answer: 8 µg/mL (≈ 16 µM)

Question: What about the “MIC C. difficile 4118” value [2, 18] of the same compound?
Answer: 8 µg/mL (≈ 16 µM)

Question: And the “MIC against C. difficile” value ([3]; one statement covering CD630 and CD4118)?
Answer: 8 µg/mL (≈ 16 µM)
